Results as given in ChEMBL document CHEMBL1140418, “Synthesis of (2R,3S) 3-amino-4-mercapto-2-butanol, a threonine analogue for covalent inhibition of sortases” (Bioorg Med Chem Lett, 2005).
Active and inactive are the calls of the source. No cut-off for these calls is given here.

Key:
[1] = target: T1, Sortase B (Staphylococcus aureus) (UniProt Q2FZE3); assay: Inhibitory activity against Sortase B
T1 sequence (whole entry): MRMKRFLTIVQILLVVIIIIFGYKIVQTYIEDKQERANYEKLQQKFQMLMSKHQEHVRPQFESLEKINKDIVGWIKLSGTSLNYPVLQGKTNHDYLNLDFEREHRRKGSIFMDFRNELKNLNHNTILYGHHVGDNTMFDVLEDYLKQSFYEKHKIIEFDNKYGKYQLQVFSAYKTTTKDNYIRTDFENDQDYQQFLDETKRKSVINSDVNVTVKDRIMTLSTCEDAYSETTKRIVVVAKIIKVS

[2] = target: T2, Sortase A (Staphylococcus aureus) (UniProt Q9S446); assay: Inhibitory activity against Sortase A
T2 sequence (whole entry): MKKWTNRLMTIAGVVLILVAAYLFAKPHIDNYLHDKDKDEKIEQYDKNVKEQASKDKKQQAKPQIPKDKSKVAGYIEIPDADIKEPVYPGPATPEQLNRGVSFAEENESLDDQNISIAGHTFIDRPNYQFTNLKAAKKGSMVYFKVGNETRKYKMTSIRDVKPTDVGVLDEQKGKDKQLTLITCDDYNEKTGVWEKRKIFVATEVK

Activity [1]	Activity [2]	SMILES
Active		C[C@@H](O)[C@@H](CS)NC(=O)[C@H](CCC(N)=O)NC(=O)[C@@H]1CCCN1C(=O)[C@H](CC(N)=O)NC(=O)OCc1ccccc1
	Active	CC(C)C[C@H](NC(=O)OCc1ccccc1)C(=O)N1CCC[C@H]1C(=O)N[C@@H](C)C(=O)N[C@H](CS)[C@@H](C)O
